Here are results for twelve compounds from US7347970B2, “Biocides based on silanol terminated silanes and siloxanes” (University of Florida Research Foundation, Inc., priority 2004, dated 2008).

Common to all, as to assay type: cell-based
The subject of assay [1] is E. coli. Briefly: Antimicrobial (bioactivity) test, plate counts and dilution method, log reduction. The following applies: for bioactivity against E. coli: with cosolvent propylene glycol n-propyl ether, FIG. 6. Here is the method: Bioactivity (toxicity) tests were performed using silanols according to the invention along with some controls. E. coli was provided as the target microorganism. […] 20th ed. L. S. Clesceri, A. E. Greenberg, A. D. Eaton (eds.) Washington, D.C. was employed to measure the number of viable cells after the bioactivity tests. The collected sample underwent serial dilutions in which the original sample collected was diluted in a series of dilution tubes. Each succeeding dilution tube will have only one-tenth the number of microbial cells as the preceding tube. Then the samples of the dilution were used to inoculate Petri plates containing solid medium. The sample on the plates was plated evenly over the surface of the solid medium. Colonies grew only on surface of medium and could be counted. This count was used to estimate the number of viable bacterial in the original sample.
Log reduction represents the number of E. coli eliminated through the silanol or other chemical treatment. The experiments were operated for an hour with proper stirring in aqueous solution. […] Log reduction 8 represents the detection limit for the experiment performed, and thus represents complete removal.
(§1) Nine (9) ml of D.I. water was mixed with 1 ml of E. coli solution, and antimicrobial materials for 1 hr with magnetic stirring, then sampling was carried out. The plate counting method as described above was employed to measure the viability of the E. coli.

In assay [2] the test system is E. coli. As to the kind of experiment: Minimum lethal concentration (MLC) against E. coli. The following applies: for minimum lethal concentration compared with corresponding alcohol: E. coli, FIG. 10. Here is the method:
The minimum lethal concentration against E. coli for each silanol is defined as the maximum dilution of the product that will kill a test organism. […] The antimicrobial effect increased with an increase in the number of the alkyl chain of the substituent R, in the order of methyl<ethyl<n-propyl<n-butyl as shown FIG. 5.
Antimicrobial test was carried out to compare the bioactivity of fragrance ingredient of alcohols and the corresponding silanols according to the invention against E. coli. Alcohols, 2-methyl-1-phenyl-2-propanol corresponding to benzyldimethylsilanol, 2-methyl-4-phenyl-2-butanol corresponding to phenethyldimethylsilanol, were obtained from Sigma-Aldrich, and the silanols were prepared by the hydrolysis of chlorosilane.
as §1

Assay [3] deals with E. coli. Briefly: Antimicrobial (bioactivity) test, plate counts and dilution method, log reduction. The following applies: 0.2 (% g/g), 10 minute mixing, FIG. 3; below detection limit.
Where [4] appears, read: 2 (% g/g), FIG. 4, complete removal.
Where [5] appears, read: 0.1% g/g with cosolvent propylene glycol n-propyl ether, FIG. 6/7.

Consider `C[Si](C)(O)CCC(F)(F)F` [3,3,3-trifluoropropyldimethylsilanol], for which the “log reduction of E. coli” value in assay [1] (setting [4]) is reported as “eight”.

Regarding `C[Si](C)(O)Cc1ccccc1` [Benzyldimethylsilanol (UF), Benzyldimethylsilanol], in assay [2], the “minimum lethal concentration compared with corresponding alcohol” value is given as “lower than their corresponding alcohols”.

On to `C[Si]1(C)O[Si](C)(C)O[Si](C)(C)O[Si](C)(C)O1` [D4, octamethylcyclotetrasiloxane, reference compound], for which the “bioactivity against E. coli” value in assay [1] was “did not provide significant bioactivity”. As to `C[Si](C)(O)CCc1ccccc1` [Phenethyldimethylsilanol (UF), Phenethyldimethylsilanol], the “minimum lethal concentration compared with corresponding alcohol” value in assay [2] is listed as “lower than their corresponding alcohols”. For `C[Si](C)(O)c1ccccc1` [Phenyldimethylsilanol], the “log reduction of E. coli” value in assay [1] (setting [4]) is given as “eight”.

On to `CC(C)(C)O` [t-butanol, reference compound], for which the “bioactivity against E. coli” value in assay [1] is “did not provide significant bioactivity”. For `CC(C)(C)[Si](C)(C)O` [t-butyldimethylsilanol], in assay [1] (setting [5]), the “log reduction of E. coli” value stood at 8 log. In the case of `CC[Si](O)(CC)CC` [triethylsilanol], the “reduction of E. coli” value in assay [3] is reported as “more than eight”. For the same compound, the “antimicrobial effect by minimum lethal concentration” value in assay [2] (FIG. 5) is “strong antimicrobial effect”. Also, the “log reduction of E. coli” value is 8 log in assay [1] (setting [5]); “eight” in assay [1] (setting [4]); 8 log in assay [1] (2.5 (% g/g), FIG. 2, 8 = detection limit). Moreover, the “antimicrobial effect (log reduction of E. coli)” value in assay [1] (10 (% g/g), one hour stirring in aqueous solution, FIG. 1) was “high antimicrobial effect”. `C[Si](C)(C)O` [trimethyisilanol]: the “log reduction of E. coli” value in assay [1] (setting [5]) is reported as 8 log. Consider `C=C[Si](C)(C)O` [vinyldimethylsilanol], for which, in assay [1] (setting [4]), the “log reduction of E. coli” value is listed as “eight”.

In the case of diphenylmethylsilanol, the “log reduction of E. coli” value in assay [1] (setting [5]) was found to be 8 log.

For vinylphenylmethylsilanol, in assay [1] (setting [4]), the “log reduction of E. coli” value is recorded as “eight”.
